1 compound from patent US7846939B2, “Salts and mixture of 9-oxoacridine-10-acetic acid with 1-alkylamino-1-desoxy-polyols, pharmaceutical compositions containing said agents and treatment methods” (priority 2005, dated 2010) can be followed below.

In this test the test system is Chlamydia. The experiment in a line: Chronic inflammatory diseases of uterus and appendages, 250 mg i.m., 10 injections, with BAT (ofloxacin). In kind it is in vivo, human.

With `CC1COc2c(N3CCN(C)CC3)c(F)cc3c(=O)c(C(=O)O)cn1c23` (stereo not drawn) [Basic antibacterial therapy, BAT, ofloxacin], under “After treatment”, the “Alpha-interferon, produced by the peripheral blood leukocytes, induced in culture by the Newcastle disease virus, mean” value turned out to be 5.3 log2 IU/ml; the “Amount of cytoplasmic granules in peripheral blood PNLs, mean” value came out at 10.2; the “Gamma-interferon, produced by the peripheral blood leukocytes, induced in culture by staphylococcus enterotoxin A, mean” value was 4.7 log2 IU/ml; the “Serum interferon, mean” value is reported as 0.8 log2 IU/ml. In addition, where the note is “Before treatment”, the “Alpha-interferon, produced by the peripheral blood leukocytes, induced in culture by the Newcastle disease virus, mean” value is listed as 5.1 log2 IU/ml; the “Amount of cytoplasmic granules in peripheral blood PNLs, mean” value is 8.5; the “Gamma-interferon, produced by the peripheral blood leukocytes, induced in culture by staphylococcus enterotoxin A, mean” value amounted to 4.7 log2 IU/ml; the “Serum interferon, mean” value is 0.2 log2 IU/ml. Under “PCR control”, this compound yielded an Etiological recovery of 69%.
